In the NIST ThermoML archive (doi:10.1021/je020125e):

Settings: 101.33 kPa, Liquid, Hot wire method

CCCCC(C)CC (configuration not stated) [3-methylheptane]
Settings	thermal conductivity [W/m/K]	thermal diffusivity [m2/s]
259.08 K	0.1255	–
259.32 K	0.1253	–
259.58 K	0.1252	–
260.01 K	–	8.29e-08
260.65 K	–	8.28e-08
261.32 K	–	8.27e-08
277.99 K	0.1204	–
278.23 K	0.1203	–
278.37 K	0.1202	–
278.95 K	–	7.83e-08
279.57 K	–	7.83e-08
279.93 K	–	7.84e-08
297.36 K	0.115	–
297.63 K	0.115	–
297.91 K	0.115	–
298.32 K	–	7.41e-08
299.02 K	–	7.44e-08
299.76 K	–	7.47e-08
315.56 K	0.1101	–
315.84 K	0.1101	–
316.12 K	0.1099	–
316.52 K	–	6.98e-08
317.22 K	–	7e-08
317.93 K	–	6.98e-08
331.93 K	0.1058	–
332.21 K	0.1057	–
332.51 K	0.1056	–
332.93 K	–	6.7e-08
333.64 K	–	6.7e-08
334.38 K	–	6.69e-08

CC(C)C(C)C(C)C [2,3,4-trimethylpentane]
Settings	thermal conductivity [W/m/K]	thermal diffusivity [m2/s]
259.06 K	0.1127	–
259.29 K	0.1126	–
259.54 K	0.1125	–
259.87 K	–	7.32e-08
260.45 K	–	7.32e-08
261.06 K	–	7.31e-08
277.95 K	0.1083	–
278.19 K	0.1082	–
278.44 K	0.108	–
278.74 K	–	6.91e-08
279.35 K	–	6.9e-08
279.93 K	–	6.87e-08
297.33 K	0.1036	–
297.58 K	0.1035	–
297.84 K	0.1033	–
298.16 K	–	6.57e-08
298.78 K	–	6.56e-08
299.4 K	–	6.54e-08
315.53 K	0.09948	–
315.77 K	0.09926	–
316.03 K	0.09916	–
316.35 K	–	6.19e-08
316.91 K	–	6.12e-08
317.54 K	–	6.12e-08
331.87 K	0.0958	–
332.13 K	0.09569	–
332.39 K	0.09551	–
332.69 K	–	5.9e-08
333.32 K	–	5.89e-08
333.91 K	–	5.84e-08

CCCCCC(C)C [2-methylheptane]
Settings	thermal conductivity [W/m/K]	thermal diffusivity [m2/s]
259.12 K	0.1244	–
259.33 K	0.1242	–
259.51 K	0.1242	–
260.04 K	–	8.23e-08
260.63 K	–	8.22e-08
261.12 K	–	8.22e-08
277.53 K	0.1195	–
277.77 K	0.1194	–
277.96 K	0.1193	–
278.48 K	–	7.83e-08
279.11 K	–	7.84e-08
279.63 K	–	7.81e-08
295.72 K	0.1145	–
295.95 K	0.1144	–
296.16 K	0.1143	–
296.69 K	–	7.41e-08
297.31 K	–	7.42e-08
297.85 K	–	7.39e-08
313.83 K	0.1097	–
314.07 K	0.1095	–
314.3 K	0.1095	–
314.83 K	–	7.05e-08
315.46 K	–	7.04e-08
316.05 K	–	7.06e-08
327.74 K	0.1061	–
328 K	0.1059	–
328.23 K	0.1058	–
328.77 K	–	6.82e-08
329.44 K	–	6.79e-08
330.02 K	–	6.78e-08

CCC(CC)CC [3-ethylpentane]
Settings	thermal conductivity [W/m/K]	thermal diffusivity [m2/s]
257.28 K	0.1253	–
257.54 K	0.1252	–
257.83 K	0.1251	–
258.36 K	–	8.28e-08
259.11 K	–	8.26e-08
259.89 K	–	8.25e-08
277.62 K	0.119	–
277.89 K	0.1188	–
278.19 K	0.1187	–
278.75 K	–	7.78e-08
279.49 K	–	7.73e-08
280.3 K	–	7.72e-08
296.33 K	0.1132	–
296.62 K	0.113	–
296.78 K	0.113	–
297.48 K	–	7.29e-08
298.26 K	–	7.28e-08
298.69 K	–	7.28e-08
313.96 K	0.1081	–
314.27 K	0.1079	–
314.58 K	0.1078	–
315.16 K	–	6.95e-08
315.99 K	–	6.93e-08
316.82 K	–	6.9e-08
331.22 K	0.1032	–
331.29 K	0.1029	–
331.56 K	0.1031	–
332.45 K	–	6.59e-08
333.34 K	–	6.59e-08
334.2 K	–	6.55e-08

CCC(C)CC [3-methylpentane]
Settings	thermal conductivity [W/m/K]	thermal diffusivity [m2/s]
256.68 K	0.1196	–
257 K	0.1195	–
257.43 K	0.1193	–
257.89 K	–	8.31e-08
258.67 K	–	8.27e-08
259.75 K	–	8.22e-08
276.71 K	0.1129	–
277.02 K	0.1128	–
277.46 K	0.1126	–
277.98 K	–	7.74e-08
278.74 K	–	7.71e-08
279.82 K	–	7.67e-08
296.39 K	0.1066	–
296.74 K	0.1065	–
297.2 K	0.1063	–
297.69 K	–	7.21e-08
298.55 K	–	7.2e-08
299.63 K	–	7.16e-08
314.22 K	0.1013	–
314.59 K	0.1012	–
315.08 K	0.101	–
315.57 K	–	6.8e-08
316.44 K	–	6.8e-08
317.58 K	–	6.75e-08
328.36 K	0.09736	–
328.75 K	0.09723	–
329.26 K	0.09705	–
329.73 K	–	6.51e-08
330.64 K	–	6.49e-08
331.82 K	–	6.44e-08

CCCC(C)(C)C [2,2-dimethylpentane]
Settings	thermal conductivity [W/m/K]	thermal diffusivity [m2/s]
256.16 K	0.1094	–
256.52 K	0.1091	–
256.84 K	0.109	–
257.01 K	–	7.66e-08
257.9 K	–	7.58e-08
258.7 K	–	7.56e-08
275.45 K	0.1041	–
275.83 K	0.1039	–
276.13 K	0.1037	–
276.31 K	–	7.15e-08
277.21 K	–	7.06e-08
277.95 K	–	7.03e-08
296.32 K	0.09819	–
296.69 K	0.09803	–
297.02 K	0.09794	–
297.15 K	–	6.57e-08
298.03 K	–	6.53e-08
298.82 K	–	6.49e-08
317.22 K	0.09288	–
317.63 K	0.09264	–
317.95 K	0.09251	–
318.05 K	–	6.1e-08
318.98 K	–	6.05e-08
319.72 K	–	6.03e-08
336.91 K	0.08793	–
337.31 K	0.08776	–
337.64 K	0.0876	–
337.72 K	–	5.67e-08
338.63 K	–	5.61e-08
339.39 K	–	5.59e-08

CCC(C)(C)CC [3,3-dimethylpentane]
Settings	thermal conductivity [W/m/K]	thermal diffusivity [m2/s]
256.11 K	0.1116	–
256.71 K	0.1112	–
256.82 K	–	7.8e-08
257.04 K	0.1113	–
257.62 K	–	7.76e-08
258.25 K	–	7.71e-08
276.17 K	0.106	–
276.5 K	0.1058	–
276.78 K	0.1057	–
276.87 K	–	7.25e-08
277.64 K	–	7.2e-08
278.3 K	–	7.18e-08
296.01 K	0.1005	–
296.03 K	0.1006	–
296.39 K	0.1004	–
296.63 K	0.1002	–
296.64 K	–	6.59e-08
296.69 K	–	6.66e-08
297.52 K	–	6.68e-08
298.08 K	–	6.59e-08
316.38 K	0.09528	–
316.67 K	0.09499	–
316.93 K	0.09481	–
317.05 K	–	6.22e-08
317.7 K	–	6.09e-08
318.3 K	–	6.05e-08
333.75 K	0.09074	–
334.1 K	0.09063	–
334.37 K	0.09047	5.74e-08
335.16 K	–	5.76e-08
335.77 K	–	5.74e-08
